Data from PubChem BioAssay AID1117319 (Southern Research Institute, 2015).
Records with an inconclusive call do not appear.

These compounds were tested against Virion infectivity factor (Human immunodeficiency virus type 1 group M subtype B (isolate BH10)) + Virion infectivity factor (Human immunodeficiency virus type 1 group M subtype B (isolate BRU/LAI)) + Virion infectivity factor (Human immunodeficiency virus type 1 group M subtype B (isolate PCV12)) + Virion infectivity factor (Human immunodeficiency virus type 1 group M subtype B (isolate HXB2)) + DNA dC->dU-editing enzyme APOBEC-3G (Homo sapiens) (UniProt P69720+P69721+P69722+P69723+Q9HC16) (assay: HIV-1 Vif–A3G interaction blockers – biochemical, TR-FRET, GST-Vif 1-94, biotin-A3G peptide, dose response retest, primary screen (AID 1117319;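 note: Vif residues 1-94 fused to GST binding biotinylated APOBEC3G peptide 110-148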)). Details: TR-FRET GST-Vif / biotin-A3G peptide binding.

| SMILES | IC50 [µM] |
| --- | --- |
| O=C(c1cc(COc2cccc3cccnc23)on1)N1CCC[C@H]1CO | 88.7 |
| CNc1ccccc(-c2ccc3cc4c(cc3n2)OCO4)c1=O | 16.5 |
| COc1cc(CN2CCNC(=O)C2CC(=O)N(Cc2nccn2C)C(C)C)cc(OC)c1 (stereo not drawn) | 28.3 |
| O=C(CCS(=O)(=O)c1ccc(Br)cc1)NC1CCCC1 | 20.5 |
| Cc1ccn2cc(-c3nonc3C)cc2c1 | 22.5 |
| Oc1ccc(C2Nc3cccc4cccc(c34)N2)c(O)c1 | 17.5 |
| CCOc1cc(N2CCOCC2)c(OCC)cc1NC(=O)CSc1ncn[nH]1 | 11.9 |
| O=C1CCCC(O)=C1N=Nc1ccc(S(=O)(=O)N2CCOCC2)cc1 | 6.66 |
| O=C(CN1CCN(S(=O)(=O)c2ccc(F)cc2)CC1)c1ccc(O)c(O)c1 | 20.1 |
| O=C(NN(C(=O)c1ccccc1)c1ccccc1)c1ccccc1 | 70.7 |
| FC(F)(F)C1=Nc2cccc3cccc(c23)N1 | 5.95 |
| CC1OC(OCC2OC(Oc3c(-c4ccc(O)cc4)oc4cc(O)cc(O)c4c3=O)C(O)C(O)C2O)C(O)C(O)C1O (stereo not drawn) | 11.8 |
| CN1C(=O)/C(=C/C=C/c2ccco2)C(=O)NC1=S | 13.4 |
| CC(=O)N(\C=C/C=C/C=C1\Sc2ccccc2C1=O)c1ccccc1 | 5.47 |
| NC(=O)/C(=C/c1ccco1)C(N)=S | 9.35 |
| O=S(=O)(O)c1cc(O)c2ccc(Nc3ccccc3)cc2c1 | 1.38 |
| O=C(O)C1Nc2ccc(Br)cc2C2C=CCC12 (stereo not drawn) | 1.56 |
| Cc1noc(C)c1S(=O)(=O)Nc1ccc2c(c1)C(=O)N([C@@H](C)CO)C[C@H](C)[C@@H](CN(C)Cc1ccc(C(F)(F)F)cc1)OCCCC[C@H](C)O2 | 96 |
| Cc1cc(Cl)cc2c1NC(=O)[C@]21[C@@H]2C(=O)N(Cc3ccccc3)C(=O)[C@@H]2[C@@H]2CCCN21 | 38 |
| CNc1ccc(Br)cc(C(=O)/C=C/c2ccc3c(c2)OCO3)c1=O | 21.9 |
| CC[n+]1ccc(C)c2cc(P(=O)(c3ccccc3)c3ccccc3)ccc21 | 3.93 |
| O=[N+]([O-])c1cc2no[n+]([O-])c2cc1N1CCCCC1 | 7.67 |

| SMILES | IC50 [µM] |
| --- | --- |
| O=c1cc2c(=O)oc3cc(O)c(O)oc3c2c(O)c1O | 1.68 |
| O=C1NC(=S)NC1=Cc1ccco1 | 11.3 |
| CC1=C(C#N)C(=O)N(C2CCS(=O)(=O)C2)C(=O)/C1=C\c1ccc(C)o1 (stereo not drawn) | 1.42 |
| O=[N+]([O-])c1cc(-c2ccc(/C=N/c3nc4ccccn4c3-c3ccco3)o2)ccc1Cl | 10 |
| O=C1CCCC/C1=C/Nc1ccc2c(c1)OCO2 | 5.94 |
| CC1=CC(C)(C)Nc2ccc(OC(=O)CN3C(=O)c4cccc5cccc(c45)C3=O)cc21 | 1.99 |
| CC(C)c1ccc(N2C(=O)NC(=O)/C(=C\C=C\c3ccco3)C2=O)cc1 | 9.35 |
| CC1(C)N([O-])c2cc([N+](=O)[O-])ccc2[N+]1=O | 9.68 |
| CCOC(=O)C(C)N1C(=O)S/C(=C\c2ccc(-c3ccccc3C(=O)O)o2)C1=O (stereo not drawn) | 10.8 |
| CN(C)c1ncc(C2=C(Cl)C(=O)C(N3CCCC3)=C(Cl)C2=O)s1 | 0.38 |
| O=C1CC(c2ccco2)CC(O)=C1C=Nc1cc(Cl)ccc1O (stereo not drawn) | 4.47 |
| Cc1ccc2cc(CN(Cc3nnnn3Cc3ccco3)CC3CCCO3)c(=O)[nH]c2c1C (stereo not drawn) | 34.4 |
| COc1ccc(N=C2NC(=O)/C(=C\C=C\c3ccco3)S2)cc1 | 2.2 |
| COc1ccc(CN2C(=O)NC(=O)/C(=C/c3ccc([N+](=O)[O-])o3)C2=O)cc1 | 4.49 |
| O=C1c2sc3nc4n(c(=O)c3c2CCC1Br)CCCCC4 (stereo not drawn) | 0.54 |
| O=C(O)c1cccc(-n2cccc2/C=C/[N+](=O)[O-])c1 | 5.49 |
| Cn1cccc1/C=C1/C(=O)NC(=O)N(Cc2ccc(F)cc2)C1=O | 8.76 |
| O=C1NC(=O)N(c2cccc(Cl)c2)C(=O)/C1=C\c1ccc(Sc2nc3ccccc3[nH]2)o1 | 10.1 |
| CCN(CC)c1ccc(/C=N/n2c(C)cc(C)cc2=O)cc1 | 1.65 |
| CC1(OC(=O)CCc2ccccc2)C(=O)C=C2C=C(c3ccsc3)OC=C2C1=O (stereo not drawn) | 4.73 |
| CN(C(=S)Nc1cccnc1)c1ccc(O)cc1 | 1.85 |
| O=C1C(Cl)=C(Nc2ccc3cn[nH]c3c2)C(=O)c2ccccc21 | 3.58 |

| SMILES | IC50 [µM] |
| --- | --- |
| COCCn1nnnc1C(c1cc2cc(OC)c(OC)cc2[nH]c1=O)N1CCN(c2ccc(O)cc2)CC1 (stereo not drawn) | 4.8 |
| CC(=O)Nc1ccc(S(=O)(=O)N2CCN(Cc3ccccn3)CC2)cc1 | 77.4 |
| CCC(C(=O)OCC(=O)Nc1ccc(SC(F)F)cc1)c1ccccc1 (stereo not drawn) | 83.2 |
| COC(=O)C(C)Sc1nnc(Cc2cc(=O)[nH]c(=O)[nH]2)n1-c1cc(C)ccc1C (stereo not drawn) | 95.6 |
| O=C1CC(Nc2ccc(N3CCOCC3)cc2)C(=O)N1C1CCCCC1 (stereo not drawn) | 2.74 |
| Oc1cc2c(cc1O)[C@@H](c1ccccc1)CNCC2 | 48.1 |
| COc1ccccc1-n1cnc2cc(NCc3cccs3)ccc21 | 82.7 |
| CCOC(=O)C1CCCN(C(=O)c2cc(-c3ccco3)nc3ccccc23)C1 (stereo not drawn) | 2.64 |
| COc1nc(N(c2ccccc2)c2ccccc2)nc(-n2ccnc2)n1 | 26.3 |
| COc1ccc(CCNC(=O)c2ccc3nc(-c4ccco4)c(-c4ccco4)nc3c2)cc1OC | 0.45 |
| CC(=O)NC1=NC(=O)/C(=C/c2cc(C)n(-c3cccc(C(=O)O)c3)c2C)S1 | 7.28 |
| O=C1S/C(=C\C=C\c2ccco2)C(=O)N1c1ccc(O)cc1 | 0.69 |
| Cc1cc2c(N)cccc2nn1 | < 0.195 |
| NC(=O)C1CCN(C2=C(Cl)C(=O)c3ccccc3C2=O)CC1 | 2.5 |
| CCC(C)NC(=O)Cc1cn(C)c2ccccc12 (stereo not drawn) | 87.5 |
| N#Cc1ccccc1CN1C(=O)S/C(=C/c2cccn2-c2cccc(C(=O)O)c2)C1=O | 18.5 |
| Cc1cc(C)c(S(=O)(=O)N2CCCCC2)c(C)c1N(C)S(=O)(=O)c1ccc(Cl)cc1 | 13.2 |
| CC(=O)Nc1ccc(S(=O)(=O)NCCSCc2ccco2)cc1 | 15.3 |
| COc1ccc(OC)c(NC(=O)CCN2CCC(C)CC2)c1 | 25.4 |
| CC(=O)c1sc(C(=O)O)c(-c2ccco2)c1-c1ccco1 | 9.78 |
| Cc1onc(-c2ccccc2Cl)c1C(=O)N1CCN(c2cccc(Cl)c2)CC1 | 95.4 |
| COC(=O)CCC(=O)OC1(C)C(=O)C2=CN(CCCOC(C)C)C(c3ccc(OC)cc3)=CC2=C(Br)C1=O (stereo not drawn) | 11.5 |

| SMILES | IC50 [µM] |
| --- | --- |
| O=c1oc2c(O)c(O)cc3c(=O)oc4c(O)c(O)cc1c4c23 | 0.45 |
| O=C(O)CSc1c2c(nc3cc(C(=O)Nc4cccc(C(F)(F)F)c4)ccc13)CCC2 | 13.4 |
| CCc1ccccc1N(CC(=O)NCCSCc1ccco1)S(C)(=O)=O | 78.4 |
| Cc1cccc(NC(=S)NC(=O)/C=C/c2ccco2)c1 | 17.5 |
| COc1cccc(C2C(C#N)=C(N)OC3=C2C(=O)CC(c2ccco2)C3)c1OCc1ccc(F)cc1 (stereo not drawn) | 7.82 |
| O=C1Cc2cccc(=O)c(O)c2C(=O)O1 | 14 |
| N#C/C(=C/c1ccc(Br)o1)C(N)=S | 3.87 |
| Cc1c(Cl)cccc1NS(=O)(=O)c1ccc2c(c1)C1C=CCC1C(c1ccc(C(=O)O)cc1)N2 (stereo not drawn) | 2.54 |
| COc1ccc(NC(=O)/C(C#N)=C/c2ccc(Br)o2)cc1 | 14.7 |
| Cc1ccc(-n2c(-c3cc(-c4ccco4)[nH]n3)n[nH]c2=S)c(Br)c1 | 6.39 |
| CCC1=NN2C(=N)/C(=C\c3ccc(SCc4ccco4)o3)C(=O)N=C2S1 | 10.4 |
| Cc1ccc(NC(=O)CN2C(=O)N/C(=C/c3ccco3)C2=O)cc1 | 2 |
| Cc1ccc(/C=C/C2=Cc3c(sc(NC(=O)CSc4n[nH]c(N)n4)c3C#N)C(C)(C)C2)o1 | 0.8 |
| CC1(C)Cc2nc3sc4c(SCC(=O)NCc5ccco5)ncnc4c3cc2CO1 | 79.5 |
| COc1cccc(-c2nn3c(-c4ccccn4)nnc3s2)c1 | 81.3 |
| Cc1ccc(N2CCN(c3ccc(C)cc3)C2c2ccccn2)cc1 | 75.8 |
| CC(C)CN(C(=O)CN1CCN(c2ccc(O)cc2)CC1)c1c(N)n(CC(C)C)c(=O)[nH]c1=O | 12.3 |
| CCC1C/C(=C/c2ccco2)C(=O)/C(=C/c2ccco2)C1 (stereo not drawn) | 2.59 |
| Cc1cc(-c2nc3c4c5c(sc4[nH]c(=O)n3n2)CCC5)c(C)o1 | 0.69 |
| CCOC(=O)C1=C(C)NC(C)=C(C(=O)OCC)C1c1cn(-c2ccccc2)nc1-c1ccco1 | 31.1 |
| O=[N+]([O-])c1c(NCCCO)cc(SCc2ccco2)c2nonc12 | 4.65 |
| CC(=O)c1ccc(NC(=O)CSc2nnc(-c3ccco3)c(-c3ccco3)n2)cc1 | 3.91 |

| SMILES | IC50 [µM] |
| --- | --- |
| Cc1cccc(N2C(=O)NC(=O)/C(=C/c3cc4c(cc3[N+](=O)[O-])OCO4)C2=O)c1 | 59.1 |
| O=C(N/N=C/c1cn(Cc2cccc(F)c2)c2ccccc12)c1cc(O)cc(O)c1 | 3.48 |
| O=C1NC(=S)N/C1=C/c1ccc(-c2c(Br)cc([N+](=O)[O-])cc2Br)o1 | 39 |
| O=[N+]([O-])c1cc2ccccc2c(O)c1O | 22.2 |
| CC(=O)c1cccc(NC(=O)c2cnn3ccccc23)c1 | 77.6 |
| Cc1cccn2c(=O)c3cc(C(=O)NCc4ccco4)c(=N)n(CCc4ccccc4)c3nc12 | 34 |
| CCCOc1ccc(N)cc1N | 7.66 |
| COc1ccc2[nH]c(=O)c(CN(Cc3ccco3)C(c3nnnn3Cc3ccccc3)C(C)C)cc2c1 (stereo not drawn) | 94.6 |
| CCOC(=O)N1CCN(c2ccc(O)cc2)CC1 | 16.8 |
| COC(=O)C1=C(N)OC2=C(C(=O)CCC2)C1c1cccs1 (stereo not drawn) | 44.8 |
| CC(C)(C)C1C/C(=C/c2ccco2)C(=O)/C(=C/c2ccco2)C1 (stereo not drawn) | 2.65 |
| Cc1ccc(N/N=C/c2c(C)c(C#N)c(=O)n(C)c2O)cc1C | 91.3 |
| O=C1c2ccccc2C(=O)N1/N=C/c1ccc(O)c(O)c1O | 4.54 |
| O=C(Cc1ccccc1)NC(Nc1ccccc1)C(Cl)(Cl)Cl (stereo not drawn) | 27.9 |
| COc1cccc(C(C#N)N2CCCCC2)c1O (stereo not drawn) | 79.2 |
| c1cncc(-c2nnc3sc(-c4ccco4)nn23)c1 | 28.3 |
| CCN(CC(=O)Nc1c(C(=O)OC)[nH]c2ccccc12)c1ccc2c(c1)OCO2 | 5.84 |
| CCCC1=NN2C(=N)/C(=C\c3ccc(SCc4ccco4)o3)C(=O)N=C2S1 | 8.14 |
| COc1ccc(C(=O)n2nc(-c3ccc(Cl)cc3)nc2N)cc1OC | 70.9 |
| CC(C)C(=O)Nc1nnc(Sc2ccc(N(C)C)cc2)s1 | 54.8 |
